From ChEMBL document CHEMBL1155519, “Discovery of N-phenyl-4-(thiazol-5-yl)pyrimidin-2-amine aurora kinase inhibitors” (J Med Chem, 2010)
Calls of active or inactive are those of the source. The calls are words filed in the database; no cut-off is given here.

Key:
[1] = Inhibition of CK2
[2] = tested on: MCF7; experiment: Cytotoxicity against human MCF7 cells after 96 hrs by MTT assay; type: functional, cell-based; settings: MCF7, 96 h
[3] = tested on: MV4-11; experiment: Cytotoxicity against human MV4-11 cells after 96 hrs by MTT assay; type: functional, cell-based; settings: MV4-11, 96 h
[4] = tested on: HL-60; experiment: Cytotoxicity against human HL60 cells after 96 hrs by MTT assay; type: functional, cell-based; settings: HL-60, 96 h
[5] = tested on: BXPC-3; experiment: Cytotoxicity against human BxPC3 cells after 96 hrs by MTT assay; type: functional, cell-based; settings: BXPC-3, 96 h
[6] = tested on: U2OS; experiment: Inhibition of Aurora kinase in nocodazole-synchronized human U2OS cells assessed as reduction of histone H3 serine-10 phosphorylation at 0.07 to 10 uM after 2 hrs immunofluorescence microscopy; type: cell-based
[7] = tested on: A549; experiment: Cell cycle arrest in asynchronous human A549 cells assessed as accumulation of cyclin B1-negative tetraploid cells at G1 phase at 0.5 to 2 uM after 24 hrs by FACS analysis; type: functional, cell-based
[8] = Octanol-aqueous buffer partition coefficient, log D at pH 7.4 by shake-flask method; type: physicochemical
[9] = tested on: Liver microsomes; experiment: Intrinsic clearance in rat liver microsomes by LC/MS/MS analysis; type: ADME, Microsome
[10] = Fraction unbound in rat plasma by equilibrium dialysis; type: ADME, cell-free
[11] = Elimination half life in Wistar rat at 10 mg/kg, po by LC/MS/MS analysis; type: ADME, organism-based; set-up: dose 10 mg/kg, route oral; settings: in vivo, read-out: beta t1/2 (converted)
[12] = target: Cytochrome P450 2D6 (Homo sapiens, UniProt P10635); experiment: Inhibition of human recombinant CYP2D6 at 5 uM; type: ADME; settings: recombinant enzyme
[13] = target: Cytochrome P450 1A (Homo sapiens, UniProt P04798+P05177); experiment: Inhibition of CYP1A in human hepatocyte at 1 uM; type: ADME, cell-based; settings: hepatocytes
[14] = target: Voltage-gated inwardly rectifying potassium channel KCNH2 (Homo sapiens, UniProt Q12809); experiment: Inhibition of human ERG expressed in CHO cells up to 50 uM by patch-clamp electrophysiology; type: cell-based
[15] = tested on: SW-620; experiment: Induction of apoptosis in human SW620 cells assessed as early apoptotic cells at 1 uM after 48 hrs by TUNEL assay; type: functional
[16] = tested on: HeLa; experiment: Inhibition of Aurora kinase in human HeLa cells assessed as complete inhibition of histone H3 phosphorylation at 1.25 uM after 7 hrs by Western blot analysis; type: cell-based
[17] = tested on: SW-620; experiment: Induction of apoptosis in human SW620 cells assessed as early apoptotic cells at 1 uM after 24 hrs by TUNEL assay; type: functional
[18] = target: Aurora kinase A (Homo sapiens) (UniProt O14965); experiment: Inhibition of Aurora A phosphorylation in human A549 cells at 0.15 to 5 uM after 1 hr by Western blot analysis in presence of nocodazole and proteasome inhibitor MG132; type: cell-based
[19] = tested on: NCI-H460; experiment: Antitumor activity against human NCI-H460 cells xenografted in athymic mouse assessed as delay in tumor growth at 100 mg/kg, po administered QD on day 1 after implantation for 5 days; type: functional
[20] = tested on: NCI-H460; experiment: Antitumor activity against human NCI-H460 cells xenografted in athymic mouse assessed as reduction in tumor volume at 100 mg/kg, po administered QD on day 1 after implantation for 5 days; type: functional, organism-based; set-up: dose 100 mg/kg
[21] = tested on: NCI-H460; experiment: Antitumor activity against human NCI-H460 cells xenografted in athymic mouse assessed as reduction in tumor volume at 75 mg/kg, po administered QD on day 1 after implantation for 5 days; type: functional, organism-based; set-up: dose 75 mg/kg
[22] = tested on: NCI-H460; experiment: Antitumor activity against human NCI-H460 cells xenografted in athymic mouse assessed as reduction in mean tumor volume at 100 mg/kg, po administered QD on day 1 after implantation for 5 days measured on day 6 relative to control; type: functional; set-up: scale not given: the % may be the effect or the level left
[23] = tested on: Mus musculus; experiment: Toxicity in athymic mouse xenografted with human NCI-H460 cells assessed as body weight loss at 100 mg/kg, po administered QD on day 1 after implantation for 5 days measured on day 13; type: organism-based; set-up: dose 100 mg/kg, route oral; settings: in vivo, 120 h
[24] = Antitumor activity against mouse P388D1 cells xenografted in BALB/c mouse assessed as increase in life span at 45 mg/kg, po administered BID on days 1-3 and 7-9 after tumor implantation relative to control

Chain of Voltage-gated inwardly rectifying potassium channel KCNH2 (Q12809 whole entry): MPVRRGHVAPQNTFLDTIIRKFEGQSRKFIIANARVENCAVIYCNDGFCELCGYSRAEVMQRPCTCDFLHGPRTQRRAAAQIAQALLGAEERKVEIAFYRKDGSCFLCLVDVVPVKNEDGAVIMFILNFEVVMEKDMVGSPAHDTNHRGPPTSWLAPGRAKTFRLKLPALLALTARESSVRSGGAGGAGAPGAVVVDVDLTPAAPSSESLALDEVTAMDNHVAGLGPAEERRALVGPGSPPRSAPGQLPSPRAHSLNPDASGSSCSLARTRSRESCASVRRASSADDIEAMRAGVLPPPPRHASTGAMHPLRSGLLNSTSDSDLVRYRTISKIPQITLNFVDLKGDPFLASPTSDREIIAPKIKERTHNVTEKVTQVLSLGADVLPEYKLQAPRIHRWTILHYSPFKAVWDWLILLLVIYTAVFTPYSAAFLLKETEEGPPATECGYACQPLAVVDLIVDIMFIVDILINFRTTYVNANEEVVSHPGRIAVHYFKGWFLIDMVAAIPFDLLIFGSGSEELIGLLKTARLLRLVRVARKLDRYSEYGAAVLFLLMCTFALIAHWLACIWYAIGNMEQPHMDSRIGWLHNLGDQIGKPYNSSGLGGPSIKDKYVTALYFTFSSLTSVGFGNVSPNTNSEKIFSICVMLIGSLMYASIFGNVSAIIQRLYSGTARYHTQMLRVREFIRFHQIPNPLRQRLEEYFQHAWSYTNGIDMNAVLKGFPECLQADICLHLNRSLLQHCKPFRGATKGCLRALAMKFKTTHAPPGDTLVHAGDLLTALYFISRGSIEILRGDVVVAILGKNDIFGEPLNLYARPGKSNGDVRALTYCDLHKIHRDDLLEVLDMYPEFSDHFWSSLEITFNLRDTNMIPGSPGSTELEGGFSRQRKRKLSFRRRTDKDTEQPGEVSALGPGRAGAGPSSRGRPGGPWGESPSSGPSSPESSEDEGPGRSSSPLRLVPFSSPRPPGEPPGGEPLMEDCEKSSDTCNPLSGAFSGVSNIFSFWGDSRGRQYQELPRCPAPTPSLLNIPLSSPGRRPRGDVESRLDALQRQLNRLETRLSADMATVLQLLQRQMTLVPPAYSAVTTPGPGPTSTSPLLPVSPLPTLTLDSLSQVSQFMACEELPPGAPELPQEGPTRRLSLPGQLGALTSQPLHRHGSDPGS
Chain of Aurora kinase A (Homo sapiens) (O14965 whole entry): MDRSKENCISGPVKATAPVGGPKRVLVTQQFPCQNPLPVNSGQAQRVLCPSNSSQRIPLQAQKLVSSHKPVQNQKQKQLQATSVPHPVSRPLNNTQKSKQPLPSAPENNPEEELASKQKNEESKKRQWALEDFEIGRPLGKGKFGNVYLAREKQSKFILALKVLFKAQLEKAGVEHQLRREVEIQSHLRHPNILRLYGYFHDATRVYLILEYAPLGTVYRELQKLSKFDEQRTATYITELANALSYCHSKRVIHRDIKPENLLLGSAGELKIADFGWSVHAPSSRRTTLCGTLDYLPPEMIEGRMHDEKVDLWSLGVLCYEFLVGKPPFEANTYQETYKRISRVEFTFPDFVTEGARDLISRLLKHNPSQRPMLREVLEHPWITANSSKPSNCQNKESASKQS
Chain of Cytochrome P450 2D6 (P10635 whole entry): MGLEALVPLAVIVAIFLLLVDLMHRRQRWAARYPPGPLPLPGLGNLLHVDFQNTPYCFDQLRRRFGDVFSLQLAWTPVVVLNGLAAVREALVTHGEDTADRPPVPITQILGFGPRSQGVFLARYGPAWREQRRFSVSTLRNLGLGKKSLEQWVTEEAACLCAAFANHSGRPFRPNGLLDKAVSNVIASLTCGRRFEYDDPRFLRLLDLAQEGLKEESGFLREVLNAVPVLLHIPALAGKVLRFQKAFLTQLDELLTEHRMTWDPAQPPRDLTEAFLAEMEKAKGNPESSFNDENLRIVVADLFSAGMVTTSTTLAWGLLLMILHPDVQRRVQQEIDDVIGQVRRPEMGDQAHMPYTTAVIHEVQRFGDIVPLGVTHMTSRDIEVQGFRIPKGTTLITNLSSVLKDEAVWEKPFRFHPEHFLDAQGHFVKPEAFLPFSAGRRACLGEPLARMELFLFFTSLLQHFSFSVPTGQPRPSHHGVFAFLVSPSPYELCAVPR

Question: With Cc1nc(N)sc1-c1ccnc(Nc2ccc(N3CCOCC3)cc2)n1 [CYC-116] as the compound, how does the Ki [1] read?
Answer: > 10000 nM

Question: What about the IC50 [2] of the same compound?
Answer: 599 nM

Question: And the IC50 [3]?
Answer: 34 nM

Question: What about the IC50 [4] of the same compound?
Answer: 372 nM

Question: What about the IC50 [5] of the same compound?
Answer: 1630 nM

Question: And the inhibition [6]?
Answer: Active

Question: And the Activity [7]?
Answer: Active

Question: And the logD [8]?
Answer: 2.74

Question: What about the clearance [9] of the same compound?
Answer: 42.3 µL/min/mg

Question: And the fraction unbound [10]?
Answer: 0.93

Question: And the half-life [11]?
Answer: 3 h

Question: And the “inhibition (INH)” value [12]?
Answer: Active

Question: And the “inhibition (INH)” value [13]?
Answer: Not Active

Question: And the “inhibition (INH)” value [14]?
Answer: Not Active

Question: And the Activity [15]?
Answer: 64.8%

Question: And the inhibition [16]?
Answer: Active

Question: And the Activity [17]?
Answer: 91%

Question: What about the inhibition [18] of the same compound?
Answer: Active

Question: And the Activity [19]?
Answer: 5.8 days

Question: What about the Activity [20] of the same compound?
Answer: Active

Question: And the Activity [21]?
Answer: Active

Question: And the Activity [22]?
Answer: 40%

Question: What about the Activity [23] of the same compound?
Answer: Non-toxic

Question: And the Activity [24]?
Answer: 172%
